Assays:
[1] = system: HL-60 cells; conditions: cited from earlier work; for amount at which desired cellular responses occurred: priming experiments
[2] = system: mouse embryonic stem cells and embryoid bodies; conditions: cited from earlier work
[3] = system: Staph aureus, MRSA, Klebsiella pneumoniae, E. coli, Proteus vulgaris, Pseudomonas aeruginosa, Enterobacter cloacae, Acinetobacter lwoffi, Acinetobacter …; assay: In-vitro Petri dish comparison of Lots and control antibiotics (FIGS. 16-36); format: cell-based; conditions: identical size drops (diameters of ZOA); FIGS. 16-25
[4] = Study I: vancomycin peaks and troughs in patient; format: in vivo, human; conditions: 1.5 g BID, Q12, seven doses
Protocol: Fri 2/5: Detection of a Strep-A strain, confirmed by culture study. Shifted from gentamycin to vancomycin 1.5 g BID, Q12. Patient was kept on this dosing regimen until 2/8 (date of discharge from hospital).
Mon 2/8: Patient received the last of seven doses of vancomycin. Throughout all of this their peaks (within 1 hour of receiving vancomycin) and troughs (before receiving vancomycin) were normal (ranges not noted here). Patient was discharged from the hospital on this date.

[5] = system: MRSA; conditions: IV, 8 days following admission
Protocol: In this embodiment, the additional ingredient to hasten a third therapeutic tissue healing effect was added. This embodiment used vitamin D in a small but medically efficacious amount.

Compound | amount at which desired cellular responses occurred [1] | zones of inhibition of control active agents compared with the formulations of the invention [3] | also measured
C[S+](C)[O-] [DMSO, dimethyl sulfoxide] | less than 2% | – | subsequent retinoid-induced TGM2 expression ([1]; priming of the cells by pretreatment): increases; effect on epigenetic profiles [2]: upregulation of mRNA and protein expression
CO[C@@]1(NC(=O)Cc2cccs2)C(=O)N2C(C(=O)O)=C(COC(N)=O)CS[C@@H]21 [Cefoxicillin] | – | considerably reduced zones of inhibition | –
CC[C@H]1OC(=O)[C@H](C)[C@@H](O[C@H]2C[C@@](C)(OC)[C@@H](O)[C@H](C)O2)[C@H](C)[C@@H](O[C@@H]2O[C@H](C)C[C@H](N(C)C)[C@H]2O)[C@](C)(O)C[C@@H](C)C(=O)[C@H](C)[C@@H](O)[C@]1(C)O [Erythromycin] | – | considerably reduced zones of inhibition | –
vitamin D | about 100 nM | – | –
CN[C@H](CC(C)C)C(=O)N[C@H]1C(=O)N[C@@H](CC(N)=O)C(=O)N[C@H]2C(=O)N[C@H]3C(=O)N[C@H](C(=O)N[C@H](C(=O)O)c4cc(O)cc(O)c4-c4cc3ccc4O)[C@H](O)c3ccc(c(Cl)c3)Oc3cc2cc(c3O[C@@H]2O[C@H](CO)[C@@H](O)[C@H](O)[C@H]2O[C@H]2C[C@](C)(N)[C@H](O)[C@H](C)O2)Oc2ccc(cc2Cl)[C@H]1O [Vancomycin] | – | considerably reduced zones of inhibition | peaks (within 1 hour of receiving) and troughs (before receiving) [4]: normal; patient response to treatment [5]: did not respond

— US20120076742A1, “Topical drug delivery system with dual carriers” (priority 2010, published 2012)
